How the values were obtained:
[1] = test system: CDHFD/NaNO2 rats; test: Quantitative morphometric analysis of liver collagen by Picrosirius Red (PSR) staining in CDHFD/NaNO2 rat model of NASH; assay type: in vivo, male Wistar rats; conditions: week 4 to 14; for PSR area (% area of liver): mean±SEM, vehicle-treated CDHFD/NaNO2 rats 8.5±0.6%, healthy control 1.7±0.3%, Formula (I) 0.2% in diet, Formula (III) 30 mg/kg/day; for reduction of liver collagen (PSR): vs vehicle-treated CDHFD/NaNO2 rats, Formula (I) 0.2% admixture in diet, Formula (III) 30 mg/kg/day in diet
Description: The following study was conducted to evaluate the efficacy of the combination of an ASK1 inhibitor and an FXR agonist in a rodent model of non-alcoholic steatohepatitis (NASH), relative to the efficacy of the individual agents alone in the model. NASH was induced in male Wistar rats by administration of a choline-deficient high fat diet (CDHFD) combined with the chronic administration of sodium nitrite (CDHFD/NaNO2). The model capitalizes on the “two hit theory” of NASH by inducing both metabolic dysfunction (CDHFD) and oxidative stress (NaNO2) in the liver to result in hepatic fibrosis that is similar in character and severity to that seen in patients with advanced NASH. Rats were fed CDHFD for a total of 14 weeks and were administered NaNO2 from week 4 to 14. The compound of Formula (III) (given as admixture in diet, adjusted to deliver 30 mg/kg/day), compound of Formula (I) (administered as a 0.2% admixture in diet), or vehicle was administered from week 4 to 14. The following endpoints were assessed at the completion of the 14 week study: i) liver fibrosis measured by liver hydroxyproline (OHP) content and by quantitative morphometric analysis of collagen content by Picosirius red (PSR) staining; ii) myofibroblast activation in liver sections as measured by quantitative IHC of the myofibroblast marker desmin; and, iii) Col1a1 and Timp1 in liver tissue measured by RT-PCR. All CDHFD/NaNO2 animals were fed a choline-deficient high-fat diet (CDHFD; Research Diets, Inc) for 14 weeks and were also administered intraperitoneal injections of NaNO2 (3 injections per week; Sigma Aldrich #31443) at a dose of 25 mg/kg (from week 4 to 10) and at a dose of 12.5 mg/kg (from week 10 to 14). Formula (III) (given as admixture in the CDHFD diet, adjusted to deliver 30 mg/kg/day, n=10 animals per group) and Formula (I) (given as a 0.2% admixture in the CDHFD diet, n=10 per group) were administered drug from week 4 to 14. Vehicle control animals were administered the same CDHFD diet with no drug added (Vehicle; n=10 animals per group) from week 4 to 14. […] On the final day of study, rats received a single oral gavage of either Formula (I) or Formula (III) at a dose of 30 mg/kg, four hours before animals were euthanized and tissues were collected for analyses. All endpoints were assessed at the completion of the 14 week study protocol. Whole slide images of Picrosirius Red (PSR) and Desmin stained slides were captured using a Leica AT2 scanner at 40× magnification. […] Quantitative image analysis was performed on the whole slide-scan images using Definiens Tissue Studio Architect XD (Definiens Inc.) to determine the extent and intensity of PSR and Desmin. […] The total PSR-stained area and Desmin IHC staining were measured and expressed as a percentage of total liver area stained.

[2] = test system: TIMP-1; test: Hepatic expression of TIMP-1 by qRT-PCR, CDHFD/NaNO2 rat model of NASH; assay type: in vivo, male Wistar rats; conditions: vs vehicle; rats; Formula (I) 0.2% in diet, Formula (III) 30 mg/kg/day, week 4 to 14
Description: The following study was conducted to evaluate the efficacy of the combination of an ASK1 inhibitor and an FXR agonist in a rodent model of non-alcoholic steatohepatitis (NASH), relative to the efficacy of the individual agents alone in the model. NASH was induced in male Wistar rats by administration of a choline-deficient high fat diet (CDHFD) combined with the chronic administration of sodium nitrite (CDHFD/NaNO2). The model capitalizes on the “two hit theory” of NASH by inducing both metabolic dysfunction (CDHFD) and oxidative stress (NaNO2) in the liver to result in hepatic fibrosis that is similar in character and severity to that seen in patients with advanced NASH. […] The following endpoints were assessed at the completion of the 14 week study: i) liver fibrosis measured by liver hydroxyproline (OHP) content and by quantitative morphometric analysis of collagen content by Picosirius red (PSR) staining; ii) myofibroblast activation in liver sections as measured by quantitative IHC of the myofibroblast marker desmin; and, iii) Col1a1 and Timp1 in liver tissue measured by RT-PCR. […] All endpoints were assessed at the completion of the 14 week study protocol. […] Quantitative PCR was performed and analyzed using Absolute QPCR Rox Mix (Life Technologies, Cat No # AB-1132) and a 384-format ABI 7900HT Sequence Detection System (Applied Biosystems). […]

O=C(Nc1cccc(-c2nncn2C2CC2)c1)c1cc(-n2cnc(C3CC3)c2)ccn1 [Formula (I)]
PSR area (% area of liver) [1]: 6.2±1.1%
reduction of liver collagen (PSR) [1]: 27%
reduction of hepatic TIMP-1 expression induced by CDHFD/NaNO2 [2]: 28%

O=C(O)c1ccnc(N2CC(O)(c3ccc(OCc4c(-c5c(Cl)cccc5Cl)noc4C4CC4)cc3Cl)C2)c1 [Formula (III)]
PSR area (% area of liver) [1]: 6.6±0.9%
reduction of liver collagen (PSR) [1]: 22%
reduction of hepatic TIMP-1 expression induced by CDHFD/NaNO2 [2]: did not significantly reduce

— patent publication US20180133203A1, “METHODS OF TREATING LIVER DISEASE” (Gilead Sciences, Inc., priority 2016, published 2018)
